Results reported in the supplement of paper PMC10290057.

Key:
HCT116 [1] = assay: efficacy (fitted maximal change in viability relative to DMSO control); higher = less cytotoxic (negative = loss of viability); conditions: 48 h
HCT116 [2] = assay: AC50 cell viability (CellTiter-Glo); higher = less potent; conditions: 48 h
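Wherever AC50 cell viability (CellTiter-Glo) is given: HCT116 colorectal carcinoma cells screened at five concentrations per compound, luminescent viability scaled between DMSO wells and empty wells on each plate, curves fitted per compound.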
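Wherever efficacy (fitted maximal change in viability relative to DMSO control) is given: Luminescence-based viability readout, five doses per compound, normalized against on-plate DMSO and empty-well controls, followed by dose-response curve fitting for every drug.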

Compound	efficacy (HCT116 [1])	AC50 cell viability (HCT116 [2])
NC\1=N\C(=O)N(\C=C1)[C@H]\2[C@H](O)[C@H](O)C(=C2F)\CO [Fluorocyclopentenylcytosine]	-66.3%	0.525 µM
COc1cc(N2CCC(O)CC2)ccc1Nc1cc(Nc2ccccc2[S+](=O)([O-])C(C)C)c2cc[nH]c2n1 [MPS1-IN-1]	-73%	3.72 µM
C=CC(=O)Nc1cccc(Oc2nc(Nc3ccc(N4CCN(C)CC4)cc3OC)ncc2Cl)c1 [WZ-4002]	-96.5%	11.8 µM
CN1CC[C@H]([C@@H](O)C1)C2=C(O)C=C(O)C3=C2O\C(=C/C3=O)C4=CC=CC=C4Cl [Flavopiridol]	-63.7%	0.186 µM
CCN(CC)CCNC(=O)c1c(C)[nH]c(/C=C2/C(=O)Nc3ccc(-c4csc(-c5ccccc5)n4)cc32)c1C [Amcasertib]	-99.9%	20.9 µM
CC[C@@H]([C@H](C)O)N1\N=C/N(C1=O)C2=CC=C(C=C2)N3CCN(CC3)C4=CC=C(OCC5CO[C@@](C5)(C[N]6C=NC=N6)C7=C(F)C=C(F)C=C7)C=C4 (stereo partly specified) [Posaconazole]	-58.4%	6.61 µM
N[S+](=O)([O-])c1ccc(Nc2nc(OCC3CCCCC3)c3[nH]cnc3n2)cc1 [NU-6102]	-92.8%	16.6 µM
CCCCN(CCCC)CCC(O)c1cc2c(Cl)cc(Cl)cc2c2cc(C(F)(F)F)ccc12.Cl (stereo unspecified) [Halofantrine]	-66.6%	20.9 µM
